US10550079B2, “Artificial self-sufficient cytochrome P450s” (University of Florida Research Foundation, Incorporated, priority 2015, dated 2020)

Experiments:
TxtE-BM3R = target: T1, TxtE-BM3R (UniProt C9ZDC6+P14779); experiment: Nitration of fluorinated tryptophan substrates by TxtE-BM3R; type: biochemical, S. scabies 87.22 / B. megaterium ATCC 14581
T1 construct: P450BM3 (CYP102A1) reductase domain BM3R with its Domcut-predicted native linker, from B. megaterium ATCC 14581 (GenBank J04832.1); made in house; host or cells: E. coli BL21 (DE3)-GOLD
Protocol: (§1) P450 reactions contained 0.5 mM substrate, 1 mM NADP^+, 1 mM glucose, ˜10 units/mL self-prepared glucose dehydrogenase crude extract, 1 mM NOC-5 in 100 μL of Tris-HCl buffer (100 mM, pH 8.0). As the positive control, TxtE reaction was also re-constructed in the above mixture further supplemented with 0.43 μM spinach Fer and 0.33 μM Frd. The reactions were initiated by adding 1.5 μM P450s, and incubated at 20° C., 300 rpm on a thermostat (Eppendorf) for 2 hours. Methanol (200 μl) was then added to stop the reactions. After centrifugation, 10 μl solutions were analyzed by HPLC. […] The flow rate was set as 1.5 ml/min, and the products were detected at 211 nm with a PDA detector. […]
(§2) P450 reactions contained 0.5 mM substrate, 1 mM NADP^+, 1 mM glucose, ˜10 units/mL self-prepared glucose dehydrogenase crude extract, 1 mM NOC-5 [3-(aminopropyl)-1-hydroxy-3-isopropyl-2-oxo-1-triazene] in 100 μL of Tris-HCl buffer (100 mM, pH 8.0). […] After centrifugation, 10 μl solutions were analyzed by HPLC. […] The 4-NO2-l-tryptophan was synthesized in a large-scale enzymatic reaction to establish a standard curve for product quantification. […] NADPH consumption in enzyme reactions was measured at 340 nm (ε=6.22 mM^−1·cm^−1) with a Shimadzu UV2700 dual beam UV-Vis spectrophotometer. […] The quantity of nitrated product was determined by HPLC analysis as described above. […]

TxtE = TxtE (Streptomyces scabiei, UniProt C9ZDC6); experiment: Nitration of fluorinated tryptophan substrates by TxtE; type: biochemical, S. scabies 87.22; parameters: inferred from the pET28 vector and Ni-NTA purification) (C); made in house; host or cells: E. coli BL21 (DE3)-GOLD
Protocol: as §1, §2

N[C@@H](Cc1c[nH]c2cccc(F)c12)C(=O)O [4-F-L-tryptophan]
overall conversion rate relative to L-tryptophan (TxtE-BM3R): about 20%
overall conversion rate relative to L-tryptophan (TxtE): about 20%
